Data taken from patent publication US4478849A, “Secondary amines, their preparation and use in pharmaceutical compositions” (Beecham Group Limited, priority 1978, dated 1984).

Key:
genetically obese mice = assay: carcass lipid of genetically obese mice after daily oral dosing for 28 days (anti-obesity); type: in vivo, mouse (genetically obese); settings: for g - lipid per mouse, Treated: daily for 28 days; for anti-obesity activity (in words): general statement, no dose given
Protocol: (i) The compounds and a comparison compound (salbutamol) were dosed daily in water or carboxymethylcellulose suspension to genetically obese mice by oral gavage for 28 days. At the end of that time the carcass composition was determined.

blood glucose = assay: hypoglycaemic activity: reduction in area under blood glucose curve after glucose load in fasted mice; type: in vivo, female CFLP mice; settings: for inhibition in vivo at 5 mg/kg / inhibition in vivo at 20 mg/kg: Mus musculus, po, 2 h; for anti-hyperglycaemic activity (in words): general statement, no dose given; for inhibition in vivo at 20 mg/kg: 20 mg/kg po
Protocol: Female CFLP mice, weighing approximately 25 g, were fasted for 24 hours prior to the study. The compounds under study were dosed orally (20 mg and 5 mg/kg) to each of 8 mice. 30 minutes later a blood sample ([…]) was obtained from the tail for the analysis of blood glucose. Immediately after taking this blood sample, each mouse was given a glucose load (1 g/kg body weight sub-cutaneously). Blood samples were then obtained from each mouse at 30 minute intervals for 120 minutes.
Compounds that produced a significant (P<0.05) reduction of blood glucose, compared with control mice given water, at any time interval were considered active. The area under the blood glucose curve over the 2 hour period after giving the glucose load was calculated for each compound and compared with the value for control animals. Thus a compound would give a 100% reduction in the area under the blood glucose curve if the blood glucose was maintained at the same level as in untreated fasted animals. Reduction in the glucose curve of more than 100% indicate that a compound, in spite of being given a glucose load, maintained blood glucose levels below that found in control fasted mice.

[1] = 10 mg/kg po, control 18.3 ± 0.6 (Ex. 7), 16.5 ± 0.7 (Ex. 16, 21)
[2] = 5 mg/kg po, 30 min before glucose load 1 g/kg sc, 2 hour period, versus control mice
[3] = 11 mg/kg po, control 18.9 ± 0.66 (Ex. 12), 17.0 ± 0.67 (Ex. 17)
[4] = 30 min before glucose load 1 g/kg sc, 2 hour period, versus control mice

Structure (SMILES)	anti-obesity activity (in words) (genetically obese mice)	inhibition in vivo at 5 mg/kg (blood glucose; [2]) [%]	anti-hyperglycaemic activity (in words) (blood glucose)	further results
COC(=O)c1ccc(CC(C)NCC(O)c2ccc(O)c(CO)c2)cc1 (stereo not drawn) [21 (mp 140.5-143.5°), N-[2-(4-carbomethoxyphenyl)-1-methylethyl]-2-hydroxy-2-(4-hydroxy-3-hydroxymethylphenyl) ethanamine]				g - lipid per mouse, Treated (genetically obese mice; [1]): 12.7 ± 0.8 g; Reduction in area under blood glucose curve (%) (blood glucose; [2]): 153%
COC(=O)c1ccc(CCC(C)NCC(O)c2ccc(O)c(CO)c2)cc1 (stereo not drawn) [Example 7]	particularly worthy of mention in view of their anti-obesity activity	110	particularly worthy of mention in view of their anti-hyperglycaemic activity	g - lipid per mouse, Treated (genetically obese mice; [1]): 14.3 ± 0.4 g
COC(=O)c1ccc(OCC(C)NCC(O)c2ccc(O)c(CO)c2)cc1 (stereo not drawn) [Example 8, N-[2-(4-Carbomethoxyphenoxy)-1-methylethyl]-2-hydroxy-2-(4-hydroxy-3-hydroxymethylphenyl)ethanamine]				g - lipid per mouse, Treated (genetically obese mice; 21 mg/kg po, control 21.9 ± 0.5): 19.6 ± 0.4 g
COC(=O)c1ccc(CC(C)NCC(O)c2ccc(O)c(CO)c2)c(F)c1 (stereo not drawn) [Example 9, N-[2-(4-Carbomethoxy-2-fluorophenyl)-1-methylethyl]-2-hydroxy-2-(4-hydroxy-3-hydroxymethylphenyl) ethanamine]		47		
COC(=O)c1ccc(CC(C)NCC(O)c2ccc(O)c(CO)c2)cc1OC (stereo not drawn) [Example 10, N-[2-(4-Carbomethoxy-3-methoxyphenyl)-1-methylethyl]-2-hydroxy-2-(4-hydroxy-3-hydroxymethylphenyl)ethanamine]	particularly worthy of mention in view of their anti-obesity activity			
COC(=O)c1ccc(CC(C)NCC(O)c2ccc(O)c(CO)c2)c(OC)c1 (stereo not drawn) [Example 12, N-[2-(4-Carbomethoxy-2-methoxyphenyl)-1-methylethyl]-2-hydroxy-2-(4-hydroxy-3-hydroxymethylphenyl)ethanamine]	particularly worthy of mention in view of their anti-obesity activity	168	particularly worthy of mention in view of their anti-hyperglycaemic activity	g - lipid per mouse, Treated (genetically obese mice; [3]): 16.2 ± 0.42 g
CC(Cc1ccc(C(=O)OC(C)C)cc1)NCC(O)c1ccc(O)c(CO)c1 (stereo not drawn) [Example 13, N-[2-(4-Carboisopropoxyphenyl)-1-methylethyl]-2-hydroxy-2-(4-hydroxy-3-hydroxymethylphenyl)ethanamine]	particularly worthy of mention in view of their anti-obesity activity			
COC(=O)c1ccc(CC(C)NCC(O)c2ccc(O)c(CO)c2)cc1C (stereo not drawn) [Example 14, N-[2-(4-Carbomethoxy-3-methylphenyl)-1-methylethyl]-2-hydroxy-2-(4-hydroxy-3-hydroxymethylphenyl)ethanamine]	particularly worthy of mention in view of their anti-obesity activity			g - lipid per mouse, Treated (genetically obese mice; 10.5 mg/kg po, control 17.0 ± 0.67): 14.3 ± 0.61 g
CCOC(=O)c1ccc(CC(C)NCC(O)c2ccc(O)c(CO)c2)cc1 (stereo not drawn) [Example 16, N-[2-(4-Carboethoxyphenyl)-1-methylethyl]-2-hydroxy-2-(4-hydroxy-3-hydroxymethylphenyl) ethanamine]	particularly worthy of mention in view of their anti-obesity activity			g - lipid per mouse, Treated (genetically obese mice; [1]): 12.9 ± 0.8 g
COC(=O)c1ccc(CCCC(C)NCC(O)c2ccc(O)c(CO)c2)cc1 (stereo not drawn) [Example 17]	particularly worthy of mention in view of their anti-obesity activity	84	particularly worthy of mention in view of their anti-hyperglycaemic activity	g - lipid per mouse, Treated (genetically obese mice; [3]): 14.0 ± 0.97 g
COC(=O)c1ccc(C(C)NCC(O)c2ccc(O)c(CO)c2)cc1 (stereo not drawn) [Example 18]				inhibition in vivo at 20 mg/kg (blood glucose; [4]): 25%
COC(=O)c1ccc(CC(C)NCC(O)c2ccc(O)c(O)c2)cc1 (stereo not drawn) [Example 19, N-(2-[4-Carbomethoxyphenyl]-1-methylethyl)-2-(3,4-dihydroxyphenyl)-2-hydroxyethanamine]			particularly worthy of mention in view of their anti-hyperglycaemic activity	
COC(=O)c1ccc(CC(C)NCC(O)c2ccccc2)c(Cl)c1 (stereo not drawn) [Example 23, N-(2-[4-Carbomethoxy-2-chlorophenyl]-1-methylethyl)-2-hydroxy-2-phenylethanamine]	particularly worthy of mention in view of their anti-obesity activity			
COC(=O)c1ccc(CC(C)NCC(O)c2ccccc2)c(OC)c1 (stereo not drawn) [Example 24, N-(2-[4-Carbomethoxy-2-methoxyphenyl]-1-methylethyl)-2hydroxy-2-phenylethanamine]	particularly worthy of mention in view of their anti-obesity activity			
COC(=O)c1ccc(CCNCC(O)c2ccccc2)cc1 (stereo not drawn) [Example 25, N-(2-[4-Carbomethoxyphenyl]ethyl)-2-hydroxy-2-phenylethanamine]		179	particularly worthy of mention in view of their anti-hyperglycaemic activity	
COC(=O)c1ccc(CC(C)(C)NCC(O)c2ccccc2)cc1 (stereo not drawn) [Example 26, N-(2-[4-Carbomethoxyphenyl]-1,1-dimethylethyl)-2-hydroxy-2-phenylethanamine]	particularly worthy of mention in view of their anti-obesity activity			g - lipid per mouse, Treated (genetically obese mice; 9 mg/kg po, control 18.9 ± 0.66): 16.4 ± 1.2 g
COC(=O)c1ccc(CCNCC(O)c2ccccc2Cl)cc1 (stereo not drawn) [Example 27, N-(2-[4-Carbomethoxyphenyl]ethyl)-2-(2-chlorophyenyl)-2-hydroxyethanamine]		38		
COC(=O)c1ccc(CC(C)(C)NCC(O)c2ccc(O)c(CO)c2)cc1 (stereo not drawn) [Example 31, N-(2-[4-Carbomethoxyphenyl]-1,1-dimethylethyl)-2-hydroxy-2-(4-hydroxy-3-hydroxymethylphenyl) ethanamine]		139	particularly worthy of mention in view of their anti-hyperglycaemic activity	
COC(=O)c1ccc(CC(C)NCC(O)c2ccc(O)cc2Cl)cc1 (stereo not drawn) [Example 33, N-(2-[4-Carbomethoxyphenyl]-1-methylethyl)-2-(2-chloro-4-hydroxyphenyl)-2-hydroxyethanamine]		88	particularly worthy of mention in view of their anti-hyperglycaemic activity	
COC(=O)c1ccc(CC(C)NCC(O)c2ccc(O)c(N)c2)cc1 (stereo not drawn) [Example 34]				inhibition in vivo at 20 mg/kg (blood glucose; [4]): 61%
COC(=O)c1ccc(C[C@@H](C)NCC(O)c2ccc(O)c(CO)c2)cc1 (stereo partly drawn) [Example 35, N-(1-(R)-2-[4-Carbomethoxyphenyl]-1-methylethyl)-2-hydroxy-2-(4-hydroxy-3-hydroxymethylphenyl)ethanamine]	particularly worthy of mention in view of their anti-obesity activity			
COC(=O)c1ccc(C[C@H](C)NCC(O)c2ccc(O)c(CO)c2)cc1 (stereo partly drawn) [Example 36, N-(1-(S)-2-[4-Carbomethoxyphenyl]-1-methylethyl)-2-hydroxy-2-(4-hydroxy-3-hydroxymethylphenyl)ethanamine]		79	particularly worthy of mention in view of their anti-hyperglycaemic activity	
COC(=O)c1ccc(CC(C)NCC(O)c2ccc(O)c(NS(C)(=O)=O)c2)cc1 (stereo not drawn) [Example 37, N-(2-[4-Carbomethoxyphenyl]-1-methylethyl)-2-(4-hydroxy-3-methanesulphonamidophenyl)-2-hydroxyethanamine]	particularly worthy of mention in view of their anti-obesity activity			
COC(=O)c1ccc(CC(C)NCC(O)c2ccc(O)c(NC(C)=O)c2)cc1 (stereo not drawn) [Example 38, N-(2-[4-Carbomethoxyphenyl]-1-methylethyl)-2-(3-acetamido-4-hydroxyphenyl)-2-hydroxyethanamine]		59		
COC(=O)c1ccc(CC(C)NCC(O)c2ccc(O)c(CS(C)(=O)=O)c2)cc1 (stereo not drawn) [Example 39, N-(2-[4-Carbomethoxyphenyl]-1-methylethyl)-2-(4-hydroxy-3-methylsulphonylmethylphenyl)-2-hydroxyethanamine]		83	particularly worthy of mention in view of their anti-hyperglycaemic activity	
CC(Cc1ccc(C(=O)O)cc1)NCC(O)c1ccccc1 (stereo not drawn) [Example 44, N-[2-(4-Carboxyphenyl)-1-methylethyl]-2-hydroxy-2-phenylethanamine]	particularly worthy of mention in view of their anti-obesity activity			
CC(C)(C)NCC(O)c1ccc(O)c(CO)c1 (stereo not drawn) [Salbutamol, reference compound]				g - lipid per mouse, Treated (genetically obese mice; 25 mg/kg po, control 23.0 ± 0.3): 23.1 ± 0.6 g
